{
  "source": "patent US8206704B2",
  "about": "“Use of GCC ligands” (priority 2003, dated 2012)",
  "key": {"T84 cells [1]": {"system": "T84 cells", "test": "DNA synthesis ([methyl-3H]thymidine incorporation), tumor cell proliferation", "format": "cell-based, human", "details": "for Effect of agent on inhibition of proliferation induced by ST: with ST, 1 μM KT5823, 50 μM RP8pCPT-cGMP, 0.5 μM KT5720, 50 μM RP-cAMPs, 10 μM milrinone, 200 μM L-DLT, 20 μM BAPTA, 50 μM DTR, 1 μM PHE, 100 nM CTX", "procedure": "T84 (passages 50-70) and SW480 (passage 100-120) human colon carcinoma cells, obtained from the American Type Culture Collection, were maintained at 37° C. (5% CO2) in DMEM/F12 containing 2.5 mM L-glutamine, 100 units/ml penicillin, 100 μg/ml streptomycin, and 10% (vol/vol) FBS.\nExponentially growing cancer cells (˜60% confluent in 96-well plates) were synchronized by serum starvation in Eagle's minimal essential medium (EMEM) for 48 h, followed by proliferative induction with 10 mM L-glutamine (in EMEM) for 24 h. ST and other agents were added to cells 15 min before 0.2 μCi per well (1 Ci=37 GBq) of [methyl-3H]thymidine, which was added for 3 h, followed by quantification of [3H]thymidine incorporation into DNA (15)."}, "[2]": {"target": "cAMP-dependent protein kinase I and II", "details": "refs. 50 and 51; cited from earlier work"}, "PKG-I and -II": {"target": "PKG-I and -II", "details": "cited from earlier work"}, "[3]": {"system": "T84 human colon carcinoma cells", "test": "Inhibition of proliferation of cancer cells", "format": "cell-based", "details": "after exposure"}, "[4]": {"system": "Caco 2 human colon carcinoma cells", "test": "Inhibition of proliferation of cancer cells", "format": "cell-based", "details": "after exposure"}, "[5]": {"system": "human T84 colon cancer cells", "test": "Perforated whole-cell patch-clamp current measurements", "format": "cell-based", "details": "Ca-free solution, n=5"}, "T84 cells [6]": {"system": "T84 cells", "test": "45Ca2+ transport (calcium influx)", "format": "cell-based, human", "details": "ST 1 μM, 20 min; 8-br-cGMP 5 mM, 40 min", "procedure": "Exponentially growing T84 cells (40-80% confluent in 24-well plates) were incubated in media (S-MEM, Life Technologies, Rockville, Md.) containing low (300 μM) CaCl2 to maximize the signal-to-noise ratio for L-cis-diltiazem (L-DLT)-sensitive 45Ca2+ transport determinations. Cells were treated with ST, 8-br-cGMP, and/or L-DLT for the indicated times, followed by the addition of 1 μCi per well 45Ca2+ for the last 15 min. Incubations were terminated by washing four times in cold PBS buffer (145 mM NaCl/5 mM KCl/1 mM MgCl2/10 mM glucose/5 mM Hepes, pH 7.4) containing 0.1 mM EGTA, cells were solubilized with cold NaOH (0.1 M), and radioactivity was quantified in 100-μl aliquots."}, "[7]": {"system": "human T84 colon cancer cells", "test": "Perforated whole-cell patch-clamp current measurements", "format": "cell-based", "details": "for Induction of L-DLT-sensitive membrane current: 500 nM ST, 2.5 mM 8-br-cGMP", "procedure": "The perforated mode of the whole-cell patch-clamp recording was applied to human T84 colon cancer cells. Membrane potential was controlled through the electrical access obtained by membrane perforation induced by amphotericin B (9, 10). The pipette solution supplemented by amphotericin B ([…]) contained: 140 mM KCl, 1 mM MgCl2, 5 mM EGTA, and 20 mM Hepes-KOH (pH 7.3). The bath solution contained (in mM): 136.5 mM NaCl, 5.4 mM KCl, 1.8 mM CaCl2, 0.5 mM MgCl2, 5.5 mM glucose, and 5 mM Hepes-NaOH (pH 7.4). Voltage-clamp recordings were performed with an Axopatch 1-C patch-clamp amplifier (Axon Instruments, Foster City, Calif.) at 31±1° C. using an HCC-100 temperature controller (Dagan Instruments, Minneapolis; ref. 19)."}, "[8]": {"system": "matrix metalloproteinase 9 release from human colorectal cancer cells", "test": "Release of matrix metalloproteinase 9 (MMP 9 activity, western blot)", "format": "cell-based", "details": "ST 1 micromolar", "from_the_text": "Preventing the secretion of this digestive enzyme will inhibit the ability of these tumor cells to invade the wall of the intestine. […] ST did this at a concentration of 1 micromolar."}, "[9]": {"system": "human colorectal cancer cells", "test": "Actin cytoskeleton organization (confocal microscopy, cell spreading)", "format": "cell-based", "details": "ST 1 micromolar, confocal microscopy", "from_the_text": "ST prevented human colorectal cancer cells from organizing their actin cytoskeleton. […] The latter is a functional readout of the ability of cells to organize actin. Human colorectal cancer cells treated with ST cannot spread their bodies out in vitro. An inability to organize their actin cytoskeletons will prevent these cells from being able to migrate through tissues to metastasize."}},
  "note": "pKi: −log10 of the molar value. “Also recorded” adds a separate entry of the source. No end group written: not given here.",
  "data": [
    {"compound": "CCCCCCOC(=O)[C@]1(O)C[C@@H]2O[C@@]1(C)n1c3ccccc3c3c4c(c5c6ccccc6n2c5c31)C(=O)NC4", "note": "[KT5720]", "values": [
      {"measurement": "Effect of agent on inhibition of proliferation induced by ST", "setting": "T84 cells [1]", "result": "did not alter"},
      {"measurement": "pKi", "setting": "[2]", "result": 7.25}
    ]},
    {"compound": "Nc1nc2c(nc(Sc3ccc(Cl)cc3)n2C2OC3COP(O)(=S)OC3C2O)c(=O)[nH]1", "note": "(centres unmarked) [RP8pCPT-cGMP]", "values": [
      {"measurement": "pKi", "setting": "PKG-I and -II", "result": 6.30},
      {"measurement": "Effect of agent on inhibition of proliferation induced by ST", "setting": "T84 cells [1]", "result": "did not alter"}
    ]},
    {"compound": "uroguanylin: homologous ST receptor binding peptide produced locally in the intestine (NDDCELCVNVACTGCL; ends and bridges not checked; cysteine pairing not given here; UniProt Q16661 97-112, looked up)", "values": [
      {"measurement": "Inhibition of proliferation of cancer cells", "setting": "[3]", "result": "inhibit the proliferation"},
      {"measurement": "Inhibition of proliferation of cancer cells", "setting": "[4]", "result": "inhibit the proliferation"}
    ]},
    {"compound": "charybdotoxin (QFTNVSCTTSKECWSVCQRLHNTSRGKCMNKKCRCYS)", "values": [
      {"measurement": "Effect of agent on inhibition of proliferation induced by ST", "setting": "T84 cells [1]", "result": "absence of charybdotoxin effect"},
      {"measurement": "Effect of agent on inhibition of proliferation induced by ST", "setting": "T84 cells [1]; listed as CTX", "result": "did not reverse"}
    ]},
    {"compound": "Nc1nc2c(nc(Br)n2[C@@H]2O[C@@H]3COP(=O)(O)O[C@H]3[C@H]2O)c(=O)[nH]1", "note": "[8-br-cGMP]", "values": [
      {"measurement": "Induced current after removal of [Ca2+]ext", "setting": "[5]", "result": "0.07±0.04", "unit": "nA"},
      {"measurement": "Inhibition of cell proliferation / DNA synthesis by 8-br-cGMP", "setting": "T84 cells [1]; 8-br-cGMP 5 mM", "result": "inhibited tumor cell DNA synthesis; also recorded: inhibition of cell proliferation"},
      {"measurement": "Influx of 45Ca2+ into colon cancer cells", "setting": "T84 cells [6]", "result": "induced influx"},
      {"measurement": "Induction of Ca2+-dependent K+ current (KCa), charybdotoxin-sensitive", "setting": "[7]", "result": "induced"},
      {"measurement": "Reversal potential derived from the induced current-voltage relationship", "setting": "[7]", "result": "~−70", "unit": "mV"},
      {"measurement": "Induction of L-DLT-sensitive membrane current", "setting": "[7]", "result": "induced an L-DLT-sensitive current"},
      {"measurement": "Induction of L-DLT-sensitive membrane current", "setting": "[7]; listed as 8-Br-cGMP", "result": "induces an L-DLT-sensitive current"},
      {"measurement": "Induced current in the presence of [Ca2+]ext", "setting": "[7]; control, 1.8 mM CaCl2, n=5", "result": "0.21±0.04", "unit": "nA"},
      {"measurement": "Shift of the reversal potential ΔEm", "setting": "[7]; ramp pulses, holding potential −40 mV, mean±SEM", "result": "−25.8±4.6", "unit": "mV"}
    ]},
    {"compound": "CC(=O)OCOC(=O)CN(CC(=O)OCOC(C)=O)c1ccccc1OCCOc1ccccc1N(CC(=O)OCOC(C)=O)CC(=O)OCOC(C)=O", "note": "[BAPTA-AM]", "values": [
      {"measurement": "Effect of agent on inhibition of proliferation induced by ST", "setting": "T84 cells [1]", "result": "reversal; also recorded: abolished"}
    ]},
    {"compound": "COC(=O)[C@@]1(OC)C[C@H]2O[C@]1(C)n1c3ccccc3c3c4c(c5c6ccccc6n2c5c31)C(=O)N(C)C4", "note": "[KT5823]", "values": [
      {"measurement": "pKi", "setting": "PKG-I and -II", "result": 6.63},
      {"measurement": "Effect of agent on inhibition of proliferation induced by ST", "setting": "T84 cells [1]", "result": "did not alter"}
    ]},
    {"compound": "Cc1[nH]c(=O)c(C#N)cc1-c1ccncc1", "note": "[milrinone]", "values": [
      {"measurement": "Effect of agent on inhibition of proliferation induced by ST", "setting": "T84 cells [1]", "result": "did not alter"}
    ]},
    {"compound": "O=C1CN(/N=C/c2ccc(-c3ccc([N+](=O)[O-])cc3)o2)C(O)=N1", "note": "[Dantrolene]", "values": [
      {"measurement": "Effect of agent on inhibition of proliferation induced by ST", "setting": "T84 cells [1]", "result": "did not reverse"},
      {"measurement": "Effect of agent on inhibition of proliferation induced by ST", "setting": "T84 cells [1]; listed as dantrolene", "result": "did not affect"}
    ]},
    {"compound": "Nc1nc2c(ncn2[C@@H]2O[C@@H]3COP(=O)(O)O[C@H]3[C@H]2O)c(=O)[nH]1", "note": "[cyclic GMP]", "values": [
      {"measurement": "Release of matrix metalloproteinase 9", "setting": "[8]", "result": "precisely mimicked"},
      {"measurement": "Organization of actin cytoskeleton", "setting": "[9]", "result": "prevented this organization"}
    ]},
    {"compound": "C[C@H](CCC(=O)O)C[C@H](C)C[C@H](C)C(=O)/C=C(\\O)[C@H](C)C[C@H](C)C/C=C/[C@@H](C)[C@@H](O)[C@@H](C)[C@@H](O)C[C@@H]1CC[C@@](C)([C@H]2CC[C@@](C)([C@@H](C)O)O2)O1", "note": "[Ionomycin]", "values": [
      {"measurement": "Effect on cell proliferation of agent on its own compared with ST", "setting": "T84 cells [1]; ionomycin 1 μM, ST 1 μM", "result": "mimicked"}
    ]},
    {"compound": "Nc1ncnc2c1ncn2[C@@H]1O[C@@H]2CO[P@@](O)(=S)O[C@H]2[C@H]1O", "note": "[RP-cAMPs]", "values": [
      {"measurement": "Effect of agent on inhibition of proliferation induced by ST", "setting": "T84 cells [1]", "result": "did not alter"},
      {"measurement": "pKi", "setting": "[2]", "result": 5.00}
    ]},
    {"compound": "NC(=Nc1ccccc1)NC(=O)c1nc(Cl)c(N)nc1N", "note": "[phenamil]", "values": [
      {"measurement": "Effect of agent on inhibition of proliferation induced by ST", "setting": "T84 cells [1]", "result": "did not affect; also recorded: did not reverse"}
    ]}
  ]
}
